Laboratory results: ChEMBL document CHEMBL3046283, “The simple synthesis and antimicrobial activity of novel fluoroquinolone derivatives from natural amino acid salts” (2012)
Structures can show the parent of a compound that is named as a salt. The source made the active and inactive calls. No cut-off for these calls is given here.

Experiments:
Aspergillus fumigatus [1] = experiment: Antifungal activity against Aspergillus fumigatus at 0.2 mg/ml after 24 hr by […]; format: functional
Bacillus subtilis [2] = experiment: Antibacterial activity against Bacillus subtilis at 0.2 mg/ml after 24 hr by […]; format: functional; conditions: read-out: DIZ
Staphylococcus aureus [3] = experiment: Antibacterial activity against Staphylococcus aureus at 0.2 mg/ml after 24 hr by […]; format: functional
Candida albicans = experiment: Antifungal activity against Candida albicans at 0.1 to 1 mg/ml after 24 hr by […]; format: functional, organism-based
Aspergillus fumigatus [4] = experiment: Antifungal activity against Aspergillus fumigatus at 0.1 mg/ml after 24 hr by […]; format: functional, organism-based
Staphylococcus aureus [5] = experiment: Antibacterial activity against Staphylococcus aureus at 0.1 mg/ml after 24 hr by […]; format: functional
Staphylococcus aureus [6] = experiment: Antibacterial activity against Staphylococcus aureus at 1 mg/ml after 24 hr by […]; format: functional; conditions: for zone of inhibition at 1000 µg/mL: read-out: DIZ
Bacillus subtilis [7] = experiment: Antibacterial activity against Bacillus subtilis at 0.1 mg/ml after 24 hr by […]; format: functional; conditions: for zone of inhibition at 100 µg/mL: read-out: DIZ
Bacillus subtilis [8] = experiment: Antibacterial activity against Bacillus subtilis at 1 mg/ml after 24 hr by […]; format: functional; conditions: read-out: DIZ
Aspergillus fumigatus [9] = experiment: Antifungal activity against Aspergillus fumigatus at 1 mg/ml after 24 hr by […]; format: functional; conditions: for zone of inhibition at 1000 µg/mL: read-out: DIZ

SMILES | zone of inhibition at 200 µg/mL (Aspergillus fumigatus [1]; read-out: DIZ) | zone of inhibition at 200 µg/mL (Bacillus subtilis [2]) | diameter of the inhibition zone (DIZ) (Staphylococcus aureus [3]) | diameter of the inhibition zone (DIZ) (Candida albicans) | diameter of the inhibition zone (DIZ) (Aspergillus fumigatus [4]) | diameter of the inhibition zone (DIZ) (Staphylococcus aureus [5]) | zone of inhibition at 1000 µg/mL (Staphylococcus aureus [6]) | zone of inhibition at 100 µg/mL (Bacillus subtilis [7]) | zone of inhibition at 1000 µg/mL (Bacillus subtilis [8]) | zone of inhibition at 1000 µg/mL (Aspergillus fumigatus [9]) | diameter of the inhibition zone (DIZ) (Aspergillus fumigatus [1]) | diameter of the inhibition zone (DIZ) (Staphylococcus aureus [6]) | diameter of the inhibition zone (DIZ) (Bacillus subtilis [7]) | diameter of the inhibition zone (DIZ) (Aspergillus fumigatus [9]) | zone of inhibition at 200 µg/mL (Staphylococcus aureus [3]; read-out: DIZ) | zone of inhibition at 100 µg/mL (Staphylococcus aureus [5]; read-out: DIZ)
CN1CCN(c2c(F)cc3c(=O)c(C(=O)O)cn(CC(=O)O)c3c2F)CC1 | 0.6 mm | 0.9 mm | inactive | inactive | inactive | inactive | 0.7 mm | 0.65 mm | 1.1 mm | 1 mm |  |  |  |  |  | 
CC(C)C(C(=O)O)n1cc(C(=O)O)c(=O)c2cc(F)c(N3CCN(C)CC3)c(F)c21 (stereo not given) |  | 0.7 mm | inactive | inactive | inactive | inactive |  |  | 1 mm |  | inactive | inactive | inactive | inactive |  | 
CC(C)CC(C(=O)O)n1cc(C(=O)O)c(=O)c2cc(F)c(N3CCN(C)CC3)c(F)c21 (stereo not given) |  | 0.95 mm | inactive | inactive | inactive | inactive | 0.6 mm |  | 1.15 mm |  | inactive |  | inactive | inactive |  | 
CN1CCN(c2c(F)cc3c(=O)c(C(=O)O)cn(C(C(=O)O)c4ccccc4)c3c2F)CC1 (stereo not given) |  | 0.9 mm | inactive | inactive | inactive | inactive | 0.6 mm | 0.6 mm | 1.05 mm | 0.6 mm | inactive |  |  |  |  | 
CN1CCN(c2c(F)cc3c(=O)c(C(=O)O)cn(C(Cc4ccccc4)C(=O)O)c3c2F)CC1 (stereo not given) |  | 0.95 mm | inactive | inactive | inactive | inactive | 0.8 mm |  | 1.2 mm | 0.75 mm | inactive |  | inactive |  |  | 
C[C@H]1COc2c(N3CCN(C)CC3)c(F)cc3c(=O)c(C(=O)O)cn1c23 [LEVOFLOXACIN HYDROCHLORIDE] |  | 3.8 mm |  | inactive | inactive |  | 3.3 mm | 3.6 mm | 4.6 mm |  | inactive |  |  | inactive | 2.9 mm | 2.6 mm
CCC(C)C(C(=O)O)n1cc(C(=O)O)c(=O)c2cc(F)c(N3CCN(C)CC3)c(F)c21 (stereo not given) |  | 1.15 mm | inactive | inactive | inactive | inactive | 0.6 mm | 0.6 mm | 1.2 mm |  | inactive |  |  | inactive |  | 
